In one data set the target is Histamine H3 receptor (UniProt Q9Y5N1). Kind of data set: Binding assay for human or rat histamine H3 receptor ([3H] R-α-methylhistamine). The following applies: [3H] R-α-methylhistamine 3.0 nM; rat brain frontal cortex or recombinant human receptor in CHO cells (not specified which). The procedure:
Compounds can be evaluated according to the following procedures.
• Receptor source: Rat brain frontal cortex or recombinant human cDNA expressed in CHO cells • Radioligand: [^3H] R-α-methylhistamine • Final ligand concentration—[3.0 nM] • Non-specific determinant: R-α-methylhistamine (100 uM) • Reference compound: R-α-methylhistamine • Positive control: R-α-methylhistamine Incubation Conditions:
Increasing concentrations of test compounds or standard were incubated with membrane receptors and radioligand in 5 mM MgCl2 and 50 mM TRIS-HCl (pH 7.4) for 60 minutes at room temperature. The reaction was terminated by rapid vacuum filtration onto the glass fiber filters. Radioactivity trapped onto the filters was determined and compared to the control values in order to ascertain any interactions of the test compound(s) with either cloned human or rat receptor binding site.

Data set [1] is described as follows: Rodent pharmacokinetic study. The conditions noted are these: whole blood, Wistar male rat; for AUC(0-t) / Cmax / Tmax / half-life: water, blood; for bioavailability: per oral 3 mg/kg vs intravenous 1 mg/kg. In kind it is in vivo, Male Wistar rats. As for the experimental part:
Male Wistar rats (230-280 grams) obtained from NIN (National Institute of Nutrition, Hyderabad, India) were used as an experimental animal. Three animals were housed in each cage. Animals were kept fasted over night and maintained on a 12 hours light/dark cycle. Three rats were dosed New chemical entity (NCE) orally (3 or 10 mg/kg) and intravenously (1 or 5 mg/kg) on day 0 and day 2.
At each time point blood was collected by jugular vein. Blood was stored at 2-8° C. until analysis. The concentrations of the NCE compound in blood were determined using LC-MS/MS method. Schedule time points: Pre dose 0.08, 0.25, 0.5, 1, 2, 4, 6, 8 and 24 hours after dosing (n=3). The NCE compounds were quantified in blood by partially validated LC-MS/MS method using acetonitrile precipitation technique. NCE compounds were quantified in the calibration range of 1-2000 ng/mL in blood. Study samples were analyzed using calibration samples in the batch and quality control samples spread across the batch.
Pharmacokinetic parameters were calculated by non-compartmental model using software WinNonlin version 5.0.1.

The nature of data set [2]: Rodent brain penetration study. The following applies: brain / whole blood; Wistar male rat; one value per compound, table lists intravenous 1 mg/kg and per oral 3 mg/kg, water; read-out: Brain Penetration Ratio (Cb/Cp). The format is in vivo, Male Wister rats. As for the experimental part: Male Wister rats (230-280 grams) obtained from NIN (National Institute of Nutrition, Hyderabad, India) was used as experimental animals. Three animals were housed in each cage. Animals were given water and food ad libitum throughout the experiment, and maintained on a 12 hours light/dark cycle.
New chemical entity (NCE) was dissolved in suitable vehicle and administered orally (3 or 10 mg/kg). Around Tmax (i.e, 0.5 hour, 1.0 hour and 2.0 hours) animals were sacrificed. Blood and brain tissue were collected and brain was homogenized to yield 20% w/v. Blood was stored at 2-8° C. and brain homogenate was frozen at −20° C. until analysis. The concentrations of NCE in blood and brain were quantified using LC-MS/MS method.
The NCE was quantified in blood and brain homogenate by partially validated LC-MS/MS method using acetonitrile precipitation technique. NCE compounds were quantified in the calibration range of 1-500 ng/mL in blood and brain homogenate. Study samples were analyzed using calibration samples in the batch and quality control samples spread across the batch. Extents of brain-blood ratio were calculated (Cb/Cp).

Another data set deals with Male Wister rats. Kind of data set: Object recognition task model. In kind it is in vivo, rat. The conditions noted are these: for Exploration time mean ± S.E.M, Familiar object / Exploration time mean ± S.E.M, Novel object: choice trial T2, 24 hours after T1. The procedure: The cognition enhancing properties of compounds of this invention were estimated by using this model.
Male Wister rats (230-280 grams) obtained from N. I. N. (National Institute of Nutrition, Hyderabad, India) was used as experimental animals. Four animals were housed in each cage. Animals were kept on 20% food deprivation before one day and given water ad libitum throughout the experiment and maintained on a 12 hours light/dark cycle. Also the rats were habituated to individual arenas for 1 hour in the absence of any objects.
One group of 12 rats received vehicle (1 mL/Kg) orally and another set of animals received compound of the formula (I) either orally or i.p., before one hour of the familiar (T1) and choice trial (T2).
The experiment was carried out in a 50×50×50 cm open field made up of acrylic. In the familiarization phase, (T1), the rats were placed individually in the open field for 3 minutes, in which two identical objects (plastic bottles, 12.5 cm height×5.5 cm diameter) covered in yellow masking tape alone (a1 and a2) were positioned in two adjacent corners, 10 cms from the walls. After 24 hours of the (T1) trial for long-term memory test, the same rats were placed in the same arena as they were placed in T1 trial. Choice phase (T2) rats were allowed to explore the open field for 3 minutes in presence of one familiar object (a3) and one novel object (b) (Amber color glass bottle, 12 cm high and 5 cm in diameter). Familiar objects presented similar textures, colors and sizes. During the T1 and T2 trial, explorations of each object (defined as sniffing, licking, chewing or having moving vibrissae whilst directing the nose towards the object at a distance of less than 1 cm) were recorded separately by stopwatch. Sitting on an object was not regarded as exploratory activity, however, it was rarely observed. • T1 is the total time spent exploring the familiar objects (a1+a2). • T2 is the total time spent exploring the familiar object and novel object (a3+b).
The object recognition test was performed as described by Ennaceur, A., Delacour, J., 1988, A new one-trial test for neurobiological studies of memory in rats—Behavioural data, Behav. Brain Res., 31, 47-59.

Another data set deals with rats. Nature of the data set: Morris water maze, reversal of scopolamine induced amnesia. The conditions noted are these: p.o., dose giving reversal. In kind it is in vivo, rat. The procedure:
The cognition-enhancing properties of compounds of this invention were estimated by using this model.
The water maze apparatus consisted of a circular pool (1.8 m diameter, 0.6 m high) constructed in black Perspex (TSE systems, Germany) filled with water (24±2° C.) and positioned underneath a wide-angled video camera to track animal. The 10 cm^2 perspex platform, lying 1 cm below the water surface, was placed in the centre of one of the four imaginary quadrants, which remained constant for all rats. The black Perspex used in the construction of the maze and platform offered no intramaze cues to guide escape behavior. By contrast, the training room offered several strong extramaze visual cues to aid the formation of the spatial map necessary for escape learning. An automated tracking system, [Videomot 2 (5.51), TSE systems, Germany] was employed. This program analyzes video images acquired via a digital camera and an image acquisition boards that determined path length, swim speed and the number of entries and duration of swim time spent in each quadrant of the water maze.

The term Ki denotes a measure of affinity in units of concentration, obtained from inhibition or displacement. One may read the AUC(0-t) as the area under the concentration-time curve up to a stated or last time point. One may read the Cmax as the highest concentration seen after dosing. Usually Tmax stands for the time from dosing to the highest level. One may read the half-life as the time needed for the level to fall by half in the phase considered. Usually bioavailability stands for the share of a dose that reaches the circulation, judged against a reference dose that is usually intravenous. A high value points to good availability. On to `O=C(C1CCC1)N1CCc2nc(OC3CCN(C4CCC4)CC3)sc2C1.O=C(O)C(O)C(O)C(=O)O` [Example 5, Cyclobutyl-[2-(1-cyclobutyl-piperidin-4-yloxy)-6,7-dihydro-4H-thiazolo[5,4-c]pyridin-5-yl]-methanone tartrate], for which the Ki on Histamine H3 receptor was determined as 3.3 nM. In data set [1] (intravenous, 1 mg/kg), the exposure AUC(0-t) came to 155 ± 38 ng·h/mL, the Cmax amounted to 287 ± 58 ng/mL, the Tmax came to 4.8 min and the half-life is 25.8 ± 6 min. For the same molecule, the bioavailability in data set [1] is 25 ± 1%. In data set [1] (per oral, 3 mg/kg), the AUC(0-t) was found to be 117 ± 34 ng·h/mL, the highest level (Cmax) was 101 ± 37 ng/mL, the Tmax was 25.2 ± 8.4 min and the half-life is 34.2 ± 6 min. The Kp in data set [2] is 3.08 ± 0.45. Besides, in the data set on Male Wister rats (3 mg/kg p.o.), the Inference result is given as “Active”; the “Exploration time mean ± S.E.M, Familiar object” value amounted to 7.15 ± 0.91 s; the “Exploration time mean ± S.E.M, Novel object” value came out at 11.44 ± 1.58 s. Further, the “Reversal of Scopolamine Induced amnesia” value in the data set on rats is given as “≦3 mg/kg, p.o”.

Turning to `O=C(C1CCOCC1)N1CCc2nc(OC3CCN(C4CCC4)CC3)sc2C1` [Example 28, [2-(1-Cyclobutyl-piperidin-4-yloxy)-6,7-dihydro-4H-thiazolo[5,4-c]pyridin-5-yl]-(tetrahydro-pyran-4-yl)-methanone], the Ki at Histamine H3 receptor amounted to 39 nM. In addition, in data set [1] (intravenous, 1 mg/kg), the AUC(0-t) came out at 282 ± 23 ng·h/mL, the Cmax turned out to be 370 ± 25 ng/mL, the Tmax was 4.8 min and the half-life is 40.2 ± 3.6 min. The molecule also had a bioavailability in data set [1] of 82 ± 38%. Moreover, in data set [1] (per oral, 3 mg/kg), the AUC(0-t) turned out to be 701 ± 328 ng·h/mL, the Cmax was found to be 286 ± 40 ng/mL, the Tmax was 49.8 ± 17.4 min and the half-life was 57 ± 16.8 min. Moreover, in the data set with Male Wister rats (0.3 mg/kg p.o.), the Inference entry is given as “Active”; the “Exploration time mean ± S.E.M, Familiar object” value is 6.12 ± 1.22 s; the “Exploration time mean ± S.E.M, Novel object” value is 11.44 ± 1.69 s. For the same molecule, in the data set with rats, the “Reversal of Scopolamine Induced amnesia” value is on record as “≧10 mg/kg, p.o”.

Consider `CCC(=O)N1CCc2nc(OC3CCN(C4CCC4)CC3)sc2C1.O=C(O)C(O)C(O)C(=O)O` [Example 1, 1-[2-(1-Cyclobutyl-piperidin-4-yloxy)-6,7-dihydro-4H-thiazolo[5,4-c]pyridin-5-yl]-propan-1-one tartrate], for which, at Histamine H3 receptor, the Ki came to 3.83 nM. In addition, in data set [1] (intravenous, 1 mg/kg), the AUC(0-t) is 356 ± 61 ng·h/mL, the maximum concentration (Cmax) amounted to 436 ± 118 ng/mL, the Tmax was found to be 4.8 min and the half-life is 58.8 ± 7.8 min. Besides, in data set [1], the bioavailability turned out to be 49 ± 5%. In data set [1] (per oral, 3 mg/kg), the exposure AUC(0-t) turned out to be 524 ± 51 ng·h/mL, the Cmax was 329 ± 23 ng/mL, the Tmax worked out at 25.2 ± 8.4 min and the half-life is 57 ± 4.2 min. Besides, in data set [2], the Kp was determined as 1.97 ± 0.24. Besides, in the data set with Male Wister rats (3 mg/kg p.o.), the Inference entry is on record as “Active”; the “Exploration time mean ± S.E.M, Familiar object” value is 7.8 ± 1.80 s; the “Exploration time mean ± S.E.M, Novel object” value is 23.95 ± 3.15 s. Besides, the “Reversal of Scopolamine Induced amnesia” value with rats is “≦10 mg/kg, p.o”.

On to `CC(C)C(=O)N1CCc2nc(OC3CCN(C4CCC4)CC3)sc2C1.O=C(O)C(O)C(O)C(=O)O` [Example 22, 1-[2-(1-Cyclobutyl-piperidin-4-yloxy)-6,7-dihydro-4H-thiazolo[5,4-c]pyridin-5-yl]-2-methyl-propan-1-one tartrate], for which, on Histamine H3 receptor, the Ki was determined as 9.5 nM. In data set [1] (intravenous, 1 mg/kg), the exposure AUC(0-t) amounted to 110 ± 15 ng·h/mL, the highest level (Cmax) was 205 ± 47 ng/mL, the time of peak concentration (Tmax) was found to be 4.8 min and the half-life was 30 ± 3 min. The molecule also had a bioavailability in data set [1] of 65 ± 24%. Moreover, in data set [1] (per oral, 3 mg/kg), the AUC(0-t) worked out at 206 ± 56 ng·h/mL, the Cmax is 189 ± 56 ng/mL, the Tmax is 25.2 ± 8.4 min and the half-life was 32.4 ± 6.6 min. The Kp in data set [2] worked out at 2.1 ± 0.13.

Turning to `O=C(CN1CCOCC1)N1CCc2nc(OC3CCN(C4CCC4)CC3)sc2C1.O=C(O)C(O)C(O)C(=O)O` [Example 12, 1-[2-(1-Cyclobutyl-piperidin-4-yloxy)-6,7-dihydro-4H-thiazolo[5,4-c]pyridin-5-yl]-2-morpholin-4-yl-ethanone tartrate], the Ki at Histamine H3 receptor is 8.44 nM. Besides, in data set [1] (intravenous, 1 mg/kg), the AUC(0-t) amounted to 334 ± 39 ng·h/mL, the concentration peaked (Cmax) at 237 ± 38 ng/mL, the Tmax came out at 4.8 min and the half-life was 172 ± 49.2 min. Further, in data set [1], the bioavailability came out at 43 ± 17%. For the same molecule, in data set [1] (per oral, 3 mg/kg), the AUC(0-t) was 417 ± 120 ng·h/mL, the Cmax was determined as 151 ± 18 ng/mL, the Tmax worked out at 49.8 ± 17.4 min and the half-life was 171 ± 22.8 min. Further, the “Reversal of Scopolamine Induced amnesia” value with rats is reported as “≧20 mg/kg, p.o”.

These data come from US8912179B2, “Heterocyclyl compounds as histamine H3 receptor ligands” (Suven Life Sciences Limited, priority 2010, dated 2014).
